# Legend:
# [1] = tested on: PERK (Thr980) phosphorylation; assay: Hypothalamic PERK (Thr980) phosphorylation in ob/ob mice; type: in vivo; settings: vs vehicle
# Method: Nine-week old lean wt and ob/ob mice were orally treated with either PBA (1 g/kg/day) or vehicle (VEH) for 26 days and PERK (Thr980) phosphorylation is examined in the hypothalamus extracts with direct immunoblotting. (B) Ten week-old wt lean and ob/ob mice were intraperitoneally injected with leptin (0.1 mg/kg) after six-hour starvation. Hypothalami were removed 30 minutes after the injections, and pStat3^Tyr705 and total Stat3 levels were examined. (C) Nine-week old lean wt and ob/ob mice were orally treated with PBA (1 g/kg/day) for 10 days. Following the pretreatment period, leptin-deficient ob/ob mice were either administered with VEH or with different doses of leptin through the intraperitoneal route. […]
# (a) Hypothalamic PERK phosphorylation (Thr980) after 21 days of vehicle or TUDCA (150 mg/kg/day) treatment. […] Error bars are ±S.E.M., P values are determined by Student's t-test. […]
# If the postulate that reduction of ER stress in the hypothalamus increases leptin sensitivity is true, chemical chaperones other than PBA should also create the same effect and sensitize the obese mice to leptin. […] For this purpose we treated ob/ob mice either with vehicle or TUDCA (150 mg/kg/day) for a period of 21 days and analyzed the hypothalamic PERK phosphorylation. […]
# [2] = tested on: LepRB signaling (LepRB, Jak2, Stat3); assay: Leptin receptor signaling in LepRB-expressing 293 cells under tunicamycin-induced ER stress; type: cell-based, Human; settings: tunicamycin 3 μg/ml (or DMSO) 4 hours, then leptin 100 ng/ml 45 minutes
# Excerpt: The leptin receptor belongs to the interleukin 6 (IL-6) receptor family of class I cytokine receptors^30. […] Binding of leptin to LepRb initiates a conformational change that leads to trans-autophosphorylation and activation of LepRb-associated Jak2^31,32 Activated Jak2 then phosphorylates the tyrosine residues within the LepRb/Jak2 complex to mediate downstream signaling. […] To examine whether UPR might alter the leptin signaling, LepRB-expressing 293 cells were first exposed to tunicamycin (3 μg/ml) to activate ER stress for a period of 4 hours and then treated with leptin (100 ng/ml) for 45 minutes. […] Finally, as a downstream element, leptin-stimulated Stat3 activation was analyzed.
# [3] = tested on: Stat3 Tyr705 phosphorylation; assay: Leptin-stimulated Stat3 Tyr705 phosphorylation in hypothalamus of wt lean and ob/ob mice; type: in vivo; settings: leptin 0.1 mg/kg IP, six hour fasting, 30 minutes
# Method: Nine-week old lean wt and ob/ob mice were orally treated with either PBA (1 g/kg/day) or vehicle (VEH) for 26 days and PERK (Thr980) phosphorylation is examined in the hypothalamus extracts with direct immunoblotting. (B) Ten week-old wt lean and ob/ob mice were intraperitoneally injected with leptin (0.1 mg/kg) after six-hour starvation. Hypothalami were removed 30 minutes after the injections, and pStat3^Tyr705 and total Stat3 levels were examined. (C) Nine-week old lean wt and ob/ob mice were orally treated with PBA (1 g/kg/day) for 10 days. Following the pretreatment period, leptin-deficient ob/ob mice were either administered with VEH or with different doses of leptin through the intraperitoneal route. The effect of VEH or PBA administration on (C) bodyweight (g), (D) percent decrease in bodyweight and (E) 24-hour food intake (n=3 for VEH and n=4 PBA-treated group). Effect of 5 mg/kg/day leptin administration on (F) bodyweight, (G) percent decrease in bodyweight and (H) 24-hour food intake in VEH- or PBA-treated ob/ob mice (n=3 for VEH and n=4 PBA-treated group). Analysis of the same parameters (body weight, percent decrease in bodyweight and 24-hour food intake) in (I, J, K) 1 mg/kg/day and (L, M, N) 0.1 mg/kg/day leptin-treated mice (n=3 for VEH and n=4 PBA-treated group). Data presented as means±SEM (*p<0.05, **p<0.01, ***p<0.001). […]
# db/db mice = assay: PBA and leptin co-administration in db/db mice; type: in vivo; settings: for body weight / food consumption / food intake: PBA 1 g/kg/day oral and/or leptin 1 mg/kg IP, 16 days
# Method: Six-week old db/db mice were orally treated with either PBA (1 g/kg/day) or VEH for four days. Following the pretreatment period, leptin receptor-deficient db/db mice were either administered with VEH or leptin (1 mg/kg) through intraperitoneal route for 16 days. (a) Bodyweight (g), (b) percent increase in bodyweight and (c) 24-hour food intake, (d) Blood glucose (mg/dl) levels of the groups. (n=5 in each group). Error bars are ±S.E.M., P values are determined by Student's t-test. (*p<0.05, **p<0.01, ***p<0.001).
# We investigated whether the effect created by PBA and leptin combinatory treatment is solely mediated through the LepRb and not due to a non-specific effect. First, we pretreated db/db mice with PBA or vehicle for four days and subsequently initiated the leptin (1 mg/kg) treatment.
Compound,"hypothalamic PERK phosphorylation (PERK activity) ([1]; TUDCA 150 mg/kg/day, 21 days)",leptin-induced Stat3 phosphorylation (Tyr705) [2],leptin-stimulated LepRB tyrosine phosphorylation [2],Stat3 Tyr705 phosphorylation in the hypothalamus ([3]; ob/ob mice),Stat3 Tyr705 phosphorylation in the hypothalamus ([3]; wt lean mice),body weight (db/db mice),food consumption / food intake (db/db mice),"PERK (Thr980) phosphorylation in hypothalamus ([1]; PBA 1 g/kg/day orally, 26 days)",blood glucose levels (db/db mice; PBA 1 g/kg/day oral vs vehicle)
"C[C@H](CCC(=O)NCCS(=O)(=O)O)[C@H]1CC[C@H]2[C@@H]3[C@@H](O)C[C@@H]4C[C@H](O)CC[C@]4(C)[C@H]3CC[C@]12C [TUDCA, tauroursodeoxycholic acid]",down regulated,,,,,,,,
leptin: adipocyte-derived hormone that suppresses appetite,,significant increase,marked increase,completely absent,responded well,did not decrease,did not decrease,,
"O=C(O)CCCc1ccccc1 [PBA, 4-phenyl butyric acid]",,,,,,significantly gained weight,no difference,significantly reduced,reduced to a significantly lower level
